The results in this text go back to US20230382910A1, “HETEROARYL COMPOUNDS FOR THE TREATMENT OF PAIN” (VERTEX PHARMACEUTICALS INCORPORATED, priority 2022, published 2023).

pIC50: −log10 of the molar value.

human NaV 1.8, sequence (Q9Y5Y9 126-399 limits assumed): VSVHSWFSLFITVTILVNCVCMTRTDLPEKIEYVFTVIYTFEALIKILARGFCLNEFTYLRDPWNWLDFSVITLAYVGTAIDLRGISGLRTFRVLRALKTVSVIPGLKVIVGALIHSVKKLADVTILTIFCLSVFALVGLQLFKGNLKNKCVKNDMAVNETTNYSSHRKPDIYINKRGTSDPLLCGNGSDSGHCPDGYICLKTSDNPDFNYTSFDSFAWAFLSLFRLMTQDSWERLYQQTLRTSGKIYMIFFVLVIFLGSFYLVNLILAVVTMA
human NaV 1.8, sequence (Q9Y5Y9 660-890 limits assumed): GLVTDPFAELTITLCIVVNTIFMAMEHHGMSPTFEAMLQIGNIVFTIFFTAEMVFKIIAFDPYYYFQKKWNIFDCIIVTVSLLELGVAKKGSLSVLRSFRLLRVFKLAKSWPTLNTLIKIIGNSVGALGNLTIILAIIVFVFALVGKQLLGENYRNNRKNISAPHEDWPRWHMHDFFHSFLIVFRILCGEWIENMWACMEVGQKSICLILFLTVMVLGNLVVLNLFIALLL
human NaV 1.8, sequence (Q9Y5Y9 1148-1722 limits assumed): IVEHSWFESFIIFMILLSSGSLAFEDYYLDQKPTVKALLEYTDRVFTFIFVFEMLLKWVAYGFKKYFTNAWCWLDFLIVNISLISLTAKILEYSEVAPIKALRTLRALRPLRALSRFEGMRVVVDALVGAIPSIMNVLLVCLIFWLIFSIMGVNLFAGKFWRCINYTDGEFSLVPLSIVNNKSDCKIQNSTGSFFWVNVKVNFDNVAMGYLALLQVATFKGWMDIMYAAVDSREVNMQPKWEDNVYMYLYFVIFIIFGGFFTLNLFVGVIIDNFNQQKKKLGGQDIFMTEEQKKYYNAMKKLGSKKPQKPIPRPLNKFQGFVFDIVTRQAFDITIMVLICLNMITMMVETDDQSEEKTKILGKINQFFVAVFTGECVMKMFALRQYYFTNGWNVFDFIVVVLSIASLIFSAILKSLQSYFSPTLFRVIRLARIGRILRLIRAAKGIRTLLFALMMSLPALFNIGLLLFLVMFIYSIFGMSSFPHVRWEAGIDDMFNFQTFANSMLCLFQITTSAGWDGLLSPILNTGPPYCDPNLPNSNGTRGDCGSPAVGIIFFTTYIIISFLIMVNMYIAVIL

The experiment addresses human NaV 1.8 (Homo sapiens, UniProt Q9Y5Y9). Nature of the experiment: E-VIPR Assay Detecting and Measuring NaV Inhibition Properties. The format is cell-based. The settings on record: HEK cells expressing a truncated form of human NaV 1.8; electrical stimulation, membrane potential FRET dyes; read-out: measured IC50 value in the E-VIPR Assay. The text has this: E-VIPR Assay Detecting and Measuring NaV Inhibition Properties
Sodium ion channels are voltage-dependent proteins that can be activated by inducing membrane voltage changes by applying electric fields. The electrical stimulation instrument and methods of use, referred to as E-VIPR, are described in International Publication No. WO 2002/008748 A3 and C.-J. Huang et al. Characterization of voltage-gated sodium channel blockers by electrical stimulation and fluorescence detection of membrane potential, 24 Nature Biotech. 439-46 (2006), both of which are incorporated by reference in their entirety. The instrument comprises a microtiter plate handler, an optical system for exciting the coumarin dye while simultaneously recording the coumarin and oxonol emissions, a waveform generator, a current- or voltage-controlled amplifier, and parallel electrode pairs that are inserted into assay plate wells. Under integrated computer control, this instrument passes user-programmed electrical stimulus protocols to cells within the wells of the microtiter plate.
16-20 hours prior to running the assay on E-VIPR, HEK cells expressing a truncated form of human NaV 1.8 with full channel activity were seeded into microtiter 384-well plates, pre-coated with matrigel, at a density of 25,000 cells per well. 2.5-5% KIR2.1 BacMam virus was added to the final cell suspension before seeding into cell plates. HEK cells were grown in Dulbecco's Modified Eagle's Medium (DMEM) supplemented with 10% FBS (Fetal Bovine Serum, qualified; Sigma #F4135), 1% NEAA (Non-Essential Amino Acids, Gibco #11140), 1% HEPES (Gibco #15630), 1% Pen-Strep (Penicillin-Streptomycin; Gibco #15140) and 5 μg/ml Blasticidin (Gibco #R210-01). Cells were expanded in 5-layer CellSTACK culture chambers or cell culture flasks with vented caps, with 90-95% humidity and 5% CO2.
Compound Loading Buffer (2× concentration): Na/TMA Cl Bath1 Buffer containing HS (omitted in experiments run in the absence of human serum (HS)) 50%, VABSC-1 1 mM, BSA 0.2 mg/ml (in Bath-1), KCl 9 mM, DMSO 0.625%.
Assay Protocol (7 Key Steps):
1) To reach the final concentration in each well, 375 nL of each compound was pre-spotted (in neat DMSO) into polypropylene compound plates at 240× desired final concentration from an intermediate stock concentration of 0.075 mM, in an 11-point dose response, 3-fold dilution, resulting in a top dose of 300 nM final concentration in the cell plate. Vehicle control (neat DMSO), and positive control (an established NaV1.8 inhibitor, 25 μM final in assay in DMSO) were added manually to the outermost columns of each plate respectively. The compound plate was backfilled with 45 μL per well of Compound Loading Buffer resulting in a 240-fold dilution of compound following a 1:1 transfer of compound into the cell plate (see Step 6). Final DMSO concentration for all wells in the assay was 0.625% (0.75% DMSO was supplemented to the Compound Loading Buffer for a final DMSO concentration of 0.625%). This assay dilution protocol was adjusted to enable a higher dose range to be tested in the presence of HS or if the final assay volume was altered.
2) Hexyl Dye Solution was prepared.
3) Cell plates were prepared. On the day of the assay, the media was aspirated, and the cells were washed three times with 80 μL of Bath-1 buffer, maintaining 25 μL residual volume in each well.
4) 25 μL per well of Hexyl Dye Solution was dispensed into the cell plates. The cells were incubated for 20 minutes at room temperature or ambient conditions in darkness.
5) 45 μL per well of Compound Loading Buffer was dispensed into compound plates.
6) The cell plates were washed three times with 80 μL per well of Bath-1 Buffer, leaving 25 µL of residual volume. Then 25 μL per well from compound plate was transferred to each cell plate. The mixture was incubated for 30 minutes at room temperature/ambient conditions. […]
The pIC50 is the IC50 on a negative log10 scale, so that one unit is a factor of ten. Turning to `Cc1nc(C(C)(C)C(=O)O)c(Cl)cc1-c1cc(=O)c2c(C(N)=O)nccc2[nH]1` [Compound 359, 2-[5-(5-carbamoyl-4-oxo-1H-1,6-naphthyridin-2-yl)-3-chloro-6-methyl-2-pyridyl]-2-methyl-propanoic acid], the pIC50 was 5.30 to 5.70.

Consider `Cc1nc(C2(C)CC2)c(Cl)cc1-c1cc(=O)c2c(C(N)=O)nccc2[nH]1` [Compound 286, 2-[5-chloro-2-methyl-6-(1-methylcyclopropyl)-3-pyridyl]-4-oxo-1H-1,6-naphthyridine-5-carboxamide], for which the negative logarithm of the IC50 (pIC50) is 5.70 to 6.30.

In the case of `Cc1cc(-c2cc(=O)c3c(C(N)=O)nccc3[nH]2)c(C)cc1Cl` [Compound 231, 2-(4-chloro-2,5-dimethyl-phenyl)-4-oxo-1H-1,6-naphthyridine-5-carboxamide], the pIC50 is 5.70 to 6.30.

For `Cc1ccc(-c2cc(=O)c3ccccc3[nH]2)c(C)c1` [Compound 6, 2-(2,4-dimethylphenyl)-1H-quinolin-4-one], the pIC50 is 5.30 to 5.70.

Regarding `Cc1nc(C(C)(C)CO)c(Cl)cc1-c1cc(=O)c2c(C(N)=O)nccc2[nH]1` [Compound 297, 2-[5-chloro-6-(2-hydroxy-1,1-dimethyl-ethyl)-2-methyl-3-pyridyl]-4-oxo-1H-1,6-naphthyridine-5-carboxamide], the pIC50 is 5.30 to 5.70.

Regarding `COc1cccc2[nH]c(-c3ccc(C4(C(F)(F)F)CC4)cc3C)cc(=O)c12` [Compound 208, 5-methoxy-2-[2-methyl-4-[1-(trifluoromethyl)cyclopropyl]phenyl]-1H-quinolin-4-one], the pIC50 is 5.70 to 6.30.

Take `Cc1ccc(C(C)(C)C)cc1-c1cc(=O)c2ccccc2[nH]1` [Compound 7, 2-(5-tert-butyl-2-methyl-phenyl)-1H-quinolin-4-one]: the pIC50 is 5.70 to 6.30.

For the compound `Cc1cc(C)c(-c2cc(=O)c3ccccc3[nH]2)cc1C` [Compound 124, 2-(2,4,5-trimethylphenyl)-1H-quinolin-4-one], the pIC50 is 5.70 to 6.30.

For `Cc1cc(-c2cc(=O)c3c[n+]([O-])ccc3[nH]2)c(C)nc1C(C)(C)C` [Compound 195, 2-(6-tert-butyl-2,5-dimethyl-3-pyridyl)-6-oxido-1H-1,6-naphthyridin-6-ium-4-one], the pIC50 was 5.70 to 6.30.

With `Cc1cc(Cl)c(Cl)cc1-c1cc(=O)c2ccccc2[nH]1` [Compound 117, 2-(4,5-dichloro-2-methyl-phenyl)-1H-quinolin-4-one], the pIC50 was 5.70 to 6.30.

For the compound `Cc1cc(C(C)(C)C)ccc1-c1cc(=O)c2c[n+]([O-])ccc2[nH]1` [Compound 107, 2-(4-tert-butyl-2-methyl-phenyl)-6-oxido-1H-1,6-naphthyridin-6-ium-4-one], the pIC50 is 5.70 to 6.30.

For the compound `Cc1cc(C)c(-c2cc(=O)c3c(C#N)cccc3[nH]2)cc1C` [Compound 123, 4-oxo-2-(2,4,5-trimethylphenyl)-1H-quinoline-5-carbonitrile], the pIC50 is 5.70 to 6.30.

Take `Cc1nc(C(C)(C)C)ccc1-c1cc(=O)c2c(C(N)=O)nccc2[nH]1` [Compound 221, 2-(6-tert-butyl-2-methyl-3-pyridyl)-4-oxo-1H-1,6-naphthyridine-5-carboxamide]: the pIC50 is 5.70 to 6.30.

For `Cc1cc(C(C)(C)C)ccc1-c1cc(=O)c2cccc(C)c2[nH]1` [Compound 209, 2-(4-tert-butyl-2-methyl-phenyl)-8-methyl-1H-quinolin-4-one], the pIC50 was 5.70 to 6.30.

As to `COc1cc(C)c(-c2cc(=O)c3ccccc3[nH]2)cc1C` [Compound 23, 2-(4-methoxy-2,5-dimethyl-phenyl)-1H-quinolin-4-one], the pIC50 is 5.30 to 5.70.

For `Cc1ccc(C(C)(C)C)cc1-c1cc(=O)c2c(C(N)=O)nccc2[nH]1` [Compound 212, 2-(5-tert-butyl-2-methyl-phenyl)-4-oxo-1H-1,6-naphthyridine-5-carboxamide], the pIC50 was 5.70 to 6.30.

Turning to `Cc1cc(C)c(C(C)C)cc1-c1cc(=O)c2c(C(N)=O)nccc2[nH]1` [Compound 234, 2-(5-isopropyl-2,4-dimethyl-phenyl)-4-oxo-1H-1,6-naphthyridine-5-carboxamide], the pIC50 was 5.70 to 6.30.

For `Cc1cc(Cl)ccc1-c1cc(=O)c2ccccc2[nH]1` [Compound 75, 2-(4-chloro-2-methyl-phenyl)-1H-quinolin-4-one], the pIC50 is 5.30 to 5.70.

Regarding `CC(C)(C)c1ccc(-c2cc(=O)c3c(C(N)=O)nccc3[nH]2)c(F)c1` [Compound 228, 2-(4-tert-butyl-2-fluoro-phenyl)-4-oxo-1H-1,6-naphthyridine-5-carboxamide], the pIC50 is 5.70 to 6.30.

With `CC(C)(C)c1ccc(-c2cc(=O)c3cnccc3[nH]2)c(CCCO)c1` [Compound 346, 2-[4-tert-butyl-2-(3-hydroxypropyl)phenyl]-1H-1,6-naphthyridin-4-one], the pIC50 is 5.30 to 5.70.

For the compound `[2H]C([2H])([2H])C(c1cc(C)c(-c2cc(=O)c3c(C(N)=O)nccc3[nH]2)cc1Cl)(C([2H])([2H])[2H])C([2H])([2H])O` [Compound 427, 2-(5-chloro-4-(1-hydroxy-2-(methyl-d3)propan-2-yl-1,1,3,3,3-d5)-2-methylphenyl)-4-oxo-1,4-dihydro-1,6-naphthyridine-5-carboxamide], the pIC50 was 5.30 to 5.70.

In the case of `CCCN(CCC)c1nc2ccccc2cc1-c1cc(=O)c2c(C(N)=O)nccc2[nH]1` [Compound 352, 2-[2-(dipropylamino)-3-quinolyl]-4-oxo-1H-1,6-naphthyridine-5-carboxamide], the pIC50 was 5.30 to 5.70.

On to `Cc1ccc2[nH]c(-c3ccc(C(C)(C)C)cc3C)cc(=O)c2c1` [Compound 126, 2-(4-tert-butyl-2-methyl-phenyl)-6-methyl-1H-quinolin-4-one], for which the pIC50 is 5.70 to 6.30.

Regarding `Cc1ccc(C(F)(F)F)cc1-c1cc(=O)c2ccccc2[nH]1` [Compound 17, 2-[2-methyl-5-(trifluoromethyl)phenyl]-1H-quinolin-4-one], the pIC50 is 5.30 to 5.70.

In the case of `Cc1cc(C(C)(C)C)ccc1-c1cc(=O)c2cccnc2[nH]1` [Compound 111, 2-(4-tert-butyl-2-methyl-phenyl)-1H-1,8-naphthyridin-4-one], the pIC50 is 5.30 to 5.70.

For the compound `COc1cc(C(C)C)cc(C)c1-c1cc(=O)c2ccccc2[nH]1` [Compound 337, 2-(4-isopropyl-2-methoxy-6-methyl-phenyl)-1H-quinolin-4-one], the pIC50 is 5.70 to 6.30.

For the compound `O=c1cc(-c2cc3c(cc2Cl)CCC3)[nH]c2ccccc12` [Compound 70, 2-(6-chloroindan-5-yl)-1H-quinolin-4-one], the pIC50 is 5.30 to 5.70.

Regarding `CC(C)(C)c1ccc(-c2[nH]c3ccncc3c(=O)c2Br)c(CCCO)c1` [Compound 347, 3-bromo-2-[4-tert-butyl-2-(3-hydroxypropyl)phenyl]-1H-1,6-naphthyridin-4-one], the pIC50 is 5.30 to 5.70.

`CC1(C)CCC(C)(C)c2cc(-c3cc(=O)c4c(C(N)=O)nccc4[nH]3)ccc21` [Compound 239, 4-oxo-2-(1,1,4,4-tetramethyltetralin-6-yl)-1H-1,6-naphthyridine-5-carboxamide]: the pIC50 is 5.70 to 6.30.

For `CCCCN(CC)c1nc2ccccc2cc1-c1cc(=O)c2c(C(N)=O)nccc2[nH]1` [Compound 353, 2-[2-[butyl(ethyl)amino]-3-quinolyl]-4-oxo-1H-1,6-naphthyridine-5-carboxamide], the pIC50 was 5.70 to 6.30.

Regarding `Cc1cc(C2CC2)ccc1-c1cc(=O)c2ccccc2[nH]1` [Compound 8, 2-(4-cyclopropyl-2-methyl-phenyl)-1H-quinolin-4-one], the pIC50 was 5.70 to 6.30.

Take `Cc1cc(C2(C#N)CC2)ccc1-c1cc(=O)c2ccccc2[nH]1` [Compound 138, 1-[3-methyl-4-(4-oxo-1H-quinolin-2-yl)phenyl]cyclopropanecarbonitrile]: the pIC50 is 5.30 to 5.70.
